Measured values from the NIST ThermoML archive (doi:10.1016/j.tca.2016.05.013).
± gives the expanded uncertainty stated by the source.

Assays:
[1] = mn = molality of the nth substance listed, in mol/kg; details: 86.8 kPa, Liquid; for viscosity: Falling or rolling sphere viscometry; for speed of sound: Frequency=3 MHz, Sing-around technique in a fixed-path interferometer; for mass density: Vibrating tube method
[2] = refractive index (Na D-line) (dimensionless); mn = molality of the nth substance listed, in mol/kg; details: 86.8 kPa, Liquid, Standard Abbe refractometry

`CCCCn1cc[n+](C)c1.O=C([O-])c1ccccc1O` [1-butyl-3-methylimidazolium salicylate] + O gave a viscosity ([1]; 288.15 K, m1 = 0.1012) of 1.289 ± 0.035 mPa·s, a viscosity ([1]; 288.15 K, m1 = 0.1032) of 1.296 ± 0.035 mPa·s and a viscosity ([1]; 288.15 K, m1 = 0.2124) of 1.432 ± 0.036 mPa·s. For the same molecule, the viscosity ([1]; 288.15 K, m1 = 0.2146) was 1.44 ± 0.036 mPa·s, the viscosity ([1]; 288.15 K, m1 = 0.3146) was 1.535 ± 0.036 mPa·s and the viscosity ([1]; 288.15 K, m1 = 0.3152) was 1.536 ± 0.036 mPa·s. For the same molecule, the speed of sound ([1]; 288.15 K, m1 = 0.1032) was 1484.4 ± 1.2 m/s, the speed of sound ([1]; 288.15 K, m1 = 0.1055) was 1484.4 ± 1.2 m/s and the speed of sound ([1]; 288.15 K, m1 = 0.2001) was 1499.1 ± 1.2 m/s. For the same molecule, the speed of sound ([1]; 288.15 K, m1 = 0.2005) was 1499.5 ± 1.2 m/s, the speed of sound ([1]; 288.15 K, m1 = 0.2965) was 1513.9 ± 1.3 m/s and the speed of sound ([1]; 288.15 K, m1 = 0.3002) was 1513.6 ± 1.3 m/s. The mass density ([1]; 288.15 K, m1 = 0.1032) was 1004.94 ± 1.2 kg/m3, the mass density ([1]; 288.15 K, m1 = 0.1055) was 1005.04 ± 1.2 kg/m3 and the mass density ([1]; 288.15 K, m1 = 0.2001) was 1010.28 ± 3.6 kg/m3. For the same molecule, the mass density ([1]; 288.15 K, m1 = 0.2005) was 1010.45 ± 3.6 kg/m3, the mass density ([1]; 288.15 K, m1 = 0.2965) was 1015.79 ± 1.2 kg/m3 and the mass density ([1]; 288.15 K, m1 = 0.3002) was 1015.82 ± 1.2 kg/m3. For the same molecule, the viscosity ([1]; 298.15 K, m1 = 0.1012) was 1.037 ± 0.035 mPa·s, the viscosity ([1]; 298.15 K, m1 = 0.1032) was 1.042 ± 0.035 mPa·s and the viscosity ([1]; 298.15 K, m1 = 0.2124) was 1.159 ± 0.035 mPa·s. For the same molecule, the viscosity ([1]; 298.15 K, m1 = 0.2146) was 1.162 ± 0.035 mPa·s, the viscosity ([1]; 298.15 K, m1 = 0.3146) was 1.256 ± 0.035 mPa·s and the viscosity ([1]; 298.15 K, m1 = 0.3152) was 1.253 ± 0.035 mPa·s. For the same molecule, the speed of sound ([1]; 298.15 K, m1 = 0.1032) was 1512 ± 1.2 m/s, the speed of sound ([1]; 298.15 K, m1 = 0.1055) was 1511.9 ± 1.2 m/s and the speed of sound ([1]; 298.15 K, m1 = 0.2001) was 1524.5 ± 1.2 m/s. The speed of sound ([1]; 298.15 K, m1 = 0.2005) was 1524.8 ± 1.2 m/s, the speed of sound ([1]; 298.15 K, m1 = 0.2965) was 1537 ± 1.3 m/s and the speed of sound ([1]; 298.15 K, m1 = 0.3002) was 1537 ± 1.3 m/s. It also gave a mass density ([1]; 298.15 K, m1 = 0.1032) of 1002.65 ± 1.3 kg/m3, a mass density ([1]; 298.15 K, m1 = 0.1055) of 1002.65 ± 1.3 kg/m3 and a mass density ([1]; 298.15 K, m1 = 0.2001) of 1007.67 ± 10 kg/m3. For the same molecule, the mass density ([1]; 298.15 K, m1 = 0.2005) was 1007.91 ± 1.9 kg/m3, the mass density ([1]; 298.15 K, m1 = 0.2965) was 1012.99 ± 1.3 kg/m3 and the mass density ([1]; 298.15 K, m1 = 0.3002) was 1012.91 ± 1.5 kg/m3. It also gave a viscosity ([1]; 308.15 K, m1 = 0.1012) of 0.869 ± 0.035 mPa·s, a viscosity ([1]; 308.15 K, m1 = 0.1032) of 0.872 ± 0.035 mPa·s and a viscosity ([1]; 308.15 K, m1 = 0.2124) of 0.981 ± 0.035 mPa·s. It also gave a viscosity ([1]; 308.15 K, m1 = 0.2146) of 0.986 ± 0.035 mPa·s, a viscosity ([1]; 308.15 K, m1 = 0.3146) of 1.078 ± 0.035 mPa·s and a viscosity ([1]; 308.15 K, m1 = 0.3152) of 1.076 ± 0.035 mPa·s. The speed of sound ([1]; 308.15 K, m1 = 0.1032) was 1532.3 ± 1.2 m/s, the speed of sound ([1]; 308.15 K, m1 = 0.1055) was 1532.4 ± 1.2 m/s and the speed of sound ([1]; 308.15 K, m1 = 0.2001) was 1543.5 ± 1.3 m/s. It also gave a speed of sound ([1]; 308.15 K, m1 = 0.2005) of 1543.3 ± 1.3 m/s, a speed of sound ([1]; 308.15 K, m1 = 0.2965) of 1553.8 ± 1.3 m/s and a speed of sound ([1]; 308.15 K, m1 = 0.3002) of 1553.8 ± 1.3 m/s. It also gave a mass density ([1]; 308.15 K, m1 = 0.1032) of 999.4 ± 1.3 kg/m3, a mass density ([1]; 308.15 K, m1 = 0.1055) of 999.44 ± 1.3 kg/m3 and a mass density ([1]; 308.15 K, m1 = 0.2001) of 1004.28 ± 8 kg/m3. It also gave a mass density ([1]; 308.15 K, m1 = 0.2005) of 1004.44 ± 1.9 kg/m3, a mass density ([1]; 308.15 K, m1 = 0.2965) of 1009.39 ± 1.5 kg/m3 and a mass density ([1]; 308.15 K, m1 = 0.3002) of 1009.41 ± 1.5 kg/m3. The viscosity ([1]; 318.15 K, m1 = 0.1012) was 0.748 ± 0.034 mPa·s, the viscosity ([1]; 318.15 K, m1 = 0.1032) was 0.751 ± 0.034 mPa·s and the viscosity ([1]; 318.15 K, m1 = 0.2124) was 0.87 ± 0.035 mPa·s. The viscosity ([1]; 318.15 K, m1 = 0.2146) was 0.876 ± 0.035 mPa·s, the viscosity ([1]; 318.15 K, m1 = 0.3146) was 0.962 ± 0.035 mPa·s and the viscosity ([1]; 318.15 K, m1 = 0.3152) was 0.96 ± 0.035 mPa·s. The speed of sound ([1]; 318.15 K, m1 = 0.1032) was 1546.8 ± 1.2 m/s, the speed of sound ([1]; 318.15 K, m1 = 0.1055) was 1547.3 ± 1.2 m/s and the speed of sound ([1]; 318.15 K, m1 = 0.2001) was 1555.9 ± 1.3 m/s. The speed of sound ([1]; 318.15 K, m1 = 0.2005) was 1556 ± 1.3 m/s, the speed of sound ([1]; 318.15 K, m1 = 0.2965) was 1565 ± 1.3 m/s and the speed of sound ([1]; 318.15 K, m1 = 0.3002) was 1564.8 ± 1.3 m/s. It also gave a mass density ([1]; 318.15 K, m1 = 0.1032) of 995.42 ± 1.2 kg/m3, a mass density ([1]; 318.15 K, m1 = 0.1055) of 995.43 ± 1.2 kg/m3 and a mass density ([1]; 318.15 K, m1 = 0.2001) of 1000.19 ± 2 kg/m3. For the same molecule, the mass density ([1]; 318.15 K, m1 = 0.2005) was 1000.27 ± 2 kg/m3, the mass density ([1]; 318.15 K, m1 = 0.2965) was 1005.07 ± 1.2 kg/m3 and the mass density ([1]; 318.15 K, m1 = 0.3002) was 1004.98 ± 1.2 kg/m3. The refractive index ([2]; 288.15 K, m1 = 0.1032) was 1.3381 ± 0.004, the refractive index ([2]; 288.15 K, m1 = 0.1055) was 1.3383 ± 0.004 and the refractive index ([2]; 288.15 K, m1 = 0.2001) was 1.3427 ± 0.004. The refractive index ([2]; 288.15 K, m1 = 0.2005) was 1.3429 ± 0.004, the refractive index ([2]; 288.15 K, m1 = 0.2965) was 1.3479 ± 0.004 and the refractive index ([2]; 288.15 K, m1 = 0.3002) was 1.3479 ± 0.004. It also gave a refractive index ([2]; 298.15 K, m1 = 0.1032) of 1.3376 ± 0.004, a refractive index ([2]; 298.15 K, m1 = 0.1055) of 1.3376 ± 0.004 and a refractive index ([2]; 298.15 K, m1 = 0.2001) of 1.342 ± 0.004. For the same molecule, the refractive index ([2]; 298.15 K, m1 = 0.2005) was 1.342 ± 0.004, the refractive index ([2]; 298.15 K, m1 = 0.2965) was 1.3468 ± 0.004 and the refractive index ([2]; 298.15 K, m1 = 0.3002) was 1.3468 ± 0.004. It also gave a refractive index ([2]; 308.15 K, m1 = 0.1032) of 1.3365 ± 0.004, a refractive index ([2]; 308.15 K, m1 = 0.1055) of 1.3365 ± 0.004 and a refractive index ([2]; 308.15 K, m1 = 0.2001) of 1.3407 ± 0.004. It also gave a refractive index ([2]; 308.15 K, m1 = 0.2005) of 1.3408 ± 0.004, a refractive index ([2]; 308.15 K, m1 = 0.2965) of 1.3456 ± 0.004 and a refractive index ([2]; 308.15 K, m1 = 0.3002) of 1.3455 ± 0.004. It also gave a refractive index ([2]; 318.15 K, m1 = 0.1032) of 1.335 ± 0.004, a refractive index ([2]; 318.15 K, m1 = 0.1055) of 1.3352 ± 0.004 and a refractive index ([2]; 318.15 K, m1 = 0.2001) of 1.3393 ± 0.004. For the same molecule, the refractive index ([2]; 318.15 K, m1 = 0.2005) was 1.3395 ± 0.004, the refractive index ([2]; 318.15 K, m1 = 0.2965) was 1.344 ± 0.004 and the refractive index ([2]; 318.15 K, m1 = 0.3002) was 1.344 ± 0.004.
